According to the NIST ThermoML archive (doi:10.1016/j.fluid.2012.11.013):
Numbers after ± are expanded uncertainties.

Conditions: Liquid, Vibrating tube method

CCC(C)(C)C [2,2-dimethylbutane]
mass density [kg/m3]
Conditions	283.15 K	288.15 K	293.15 K	298.15 K	303.15 K	308.15 K	313.15 K	318.15 K	323.15 K	328.15 K
100 kPa	658.57 ± 0.3	653.96 ± 0.3	649.25 ± 0.31	644.46 ± 0.31	639.75 ± 0.31	634.86 ± 0.31	630.04 ± 0.31	625.06 ± 0.31	620.03 ± 0.31	–
2000 kPa	660.76 ± 0.32	656.25 ± 0.32	651.6 ± 0.32	646.95 ± 0.32	642.26 ± 0.32	637.48 ± 0.33	632.76 ± 0.33	627.98 ± 0.33	623.17 ± 0.33	618.2 ± 0.33
5000 kPa	664.07 ± 0.35	659.62 ± 0.35	655.12 ± 0.35	650.7 ± 0.35	646.07 ± 0.35	641.54 ± 0.36	637.06 ± 0.36	632.33 ± 0.36	627.74 ± 0.36	623.02 ± 0.36
7000 kPa	666.19 ± 0.37	661.74 ± 0.37	657.45 ± 0.37	653.04 ± 0.37	648.58 ± 0.37	644.04 ± 0.38	639.66 ± 0.38	635.14 ± 0.38	630.61 ± 0.38	626.02 ± 0.38
10000 kPa	669.19 ± 0.4	664.88 ± 0.4	660.66 ± 0.4	656.38 ± 0.4	652.04 ± 0.4	647.69 ± 0.41	643.44 ± 0.41	639.02 ± 0.41	634.54 ± 0.41	630.26 ± 0.41
20000 kPa	678.5 ± 0.5	674.51 ± 0.5	670.51 ± 0.5	666.62 ± 0.51	662.53 ± 0.51	658.58 ± 0.51	654.67 ± 0.52	650.69 ± 0.52	646.65 ± 0.52	642.58 ± 0.53
30000 kPa	686.83 ± 0.61	683.05 ± 0.61	679.25 ± 0.62	675.66 ± 0.62	671.8 ± 0.63	668.08 ± 0.63	664.53 ± 0.64	660.78 ± 0.64	656.94 ± 0.65	653.14 ± 0.65
40000 kPa	694.31 ± 0.72	690.77 ± 0.72	687.12 ± 0.73	683.71 ± 0.74	680.03 ± 0.74	676.55 ± 0.75	673.1 ± 0.75	669.72 ± 0.76	666.02 ± 0.77	662.51 ± 0.77
50000 kPa	701.27 ± 0.82	697.81 ± 0.83	694.34 ± 0.84	691.09 ± 0.84	687.56 ± 0.85	684.38 ± 0.86	680.94 ± 0.86	677.73 ± 0.87	674.2 ± 0.88	670.88 ± 0.88
60000 kPa	707.71 ± 0.92	704.32 ± 0.93	701.07 ± 0.94	697.88 ± 0.95	694.57 ± 0.95	691.41 ± 0.96	688.22 ± 0.97	685.05 ± 0.98	681.7 ± 0.99	678.64 ± 0.99
65000 kPa	710.76 ± 0.97	707.61 ± 0.98	704.25 ± 0.99	701.14 ± 1	697.92 ± 1	695.23 ± 1	691.61 ± 1	688.58 ± 1	685.35 ± 1	682.59 ± 1.1

CC(C)C(C)C [2,3-dimethylbutane]
mass density [kg/m3]
Conditions	283.15 K	288.15 K	293.15 K	298.15 K	303.15 K	308.15 K	313.15 K	318.15 K	323.15 K	328.15 K
100 kPa	670.76 ± 0.3	666.22 ± 0.3	661.58 ± 0.3	657 ± 0.3	652.31 ± 0.31	647.61 ± 0.31	642.78 ± 0.31	638.08 ± 0.31	633.18 ± 0.31	628.26 ± 0.31
2000 kPa	672.72 ± 0.32	668.35 ± 0.32	663.76 ± 0.32	659.21 ± 0.32	654.73 ± 0.32	650.13 ± 0.32	645.28 ± 0.32	640.8 ± 0.32	636.04 ± 0.33	631.14 ± 0.33
5000 kPa	675.8 ± 0.35	671.5 ± 0.35	667.04 ± 0.35	662.62 ± 0.35	658.23 ± 0.35	653.82 ± 0.35	649.18 ± 0.35	644.77 ± 0.35	640.11 ± 0.36	635.61 ± 0.36
7000 kPa	677.77 ± 0.37	673.5 ± 0.37	669.15 ± 0.37	664.81 ± 0.37	660.39 ± 0.37	656.12 ± 0.37	651.62 ± 0.37	647.3 ± 0.37	642.73 ± 0.38	638.3 ± 0.38
10000 kPa	680.57 ± 0.39	676.37 ± 0.39	672.12 ± 0.4	667.97 ± 0.4	663.63 ± 0.4	659.42 ± 0.4	655.04 ± 0.4	650.89 ± 0.41	646.47 ± 0.41	642.27 ± 0.41
20000 kPa	689.26 ± 0.49	685.39 ± 0.49	681.36 ± 0.49	677.49 ± 0.5	673.54 ± 0.5	669.63 ± 0.5	665.61 ± 0.51	661.8 ± 0.51	657.61 ± 0.51	653.85 ± 0.52
30000 kPa	697.12 ± 0.6	693.43 ± 0.6	689.64 ± 0.61	686.05 ± 0.61	682.15 ± 0.62	678.59 ± 0.62	674.74 ± 0.63	671.23 ± 0.63	667.06 ± 0.63	663.86 ± 0.64
40000 kPa	704.27 ± 0.7	700.77 ± 0.71	697.12 ± 0.71	693.73 ± 0.72	690.01 ± 0.73	686.72 ± 0.73	683.04 ± 0.74	679.58 ± 0.74	676.08 ± 0.75	672.8 ± 0.75
50000 kPa	710.91 ± 0.8	707.56 ± 0.81	704.07 ± 0.82	700.78 ± 0.82	697.16 ± 0.83	694.02 ± 0.84	690.56 ± 0.84	687.47 ± 0.85	684.13 ± 0.86	680.68 ± 0.86
60000 kPa	717.08 ± 0.9	713.85 ± 0.91	710.4 ± 0.92	707.39 ± 0.92	703.95 ± 0.93	700.83 ± 0.94	697.4 ± 0.95	694.5 ± 0.95	691.19 ± 0.96	688.05 ± 0.97
65000 kPa	720.09 ± 0.95	716.77 ± 0.96	713.55 ± 0.96	710.52 ± 0.97	707.12 ± 0.98	704.06 ± 0.99	700.79 ± 1	697.71 ± 1	694.58 ± 1	691.47 ± 1
